In data set [1] the test system is RSV-mCherry. In kind it is cell-based, HRSV. The protocol:
The inhibitory activity of the peptides of the invention was assessed in HEp-2 cells as described below:
A mCherry-expressing virus recently developed (Rameix-Welti et al., 2014, Nat. Commun., 5:5104) was used to avoid the cumbersome manipulations required with the GFP-expressing virus.
HEp-2 cells were seeded at 5×10^4 cells per well in 96 wells plate the day before the infection. Peptides were 2-fold serially diluted in DMSO (11 dilutions), then further diluted in MEM medium and pre-incubated for 15-20 minutes with 0.2 MOI of RSV-mCherry (Rameix-Welti et al., 2014, supra). Following the washing of Hep-2 cells with MEM without phenol red medium, the cells were incubated with the virus/peptide mixtures for a period of 1 h30-2 h. The cells were washed and further incubated in MEM media containing fetal bovine serum and the same concentration of peptide that was used during the infection step. Plates were incubated 48 h at 37° C. and the mCherry fluorescence was measured using a spectrofluorometer (Tecan infinite M200PRO) with excitation and emission wavelengths of 580 and 620 nm, respectively (expressed in relative fluorescence units RFU). Non-infected HEp-2 cells were used as standards for fluorescence background levels. Each experiment was performed in duplicate and repeated at least twice.

Data set [2] can be described thus: circular dichroism. The note with it: 10 mM phosphate; pH 7.5; 25 °C; 50 uM.
Data set [3] in a line: CD spectroscopy, percentage of helicity. The note with it: CD at 222 nm, 10 mM phosphate buffer pH 7.5, 50 μM peptide, 25° C. The format is physicochemical. The protocol:
The secondary structure of the peptides was then characterized by circular dichroism (DC) as described below.
The circular dichroism spectra were acquired on a Jasco J-810 and on a Chirascan spectropolarimeter. The samples were prepared in 10 mM phosphate buffer, pH 7.5, at a peptide concentration of 50 μM. Data were recorded at 25° C. by stepscan from 180 nm to 260 nm in a 0.1 cm pathlength quartz cell using 0.2 nm wavelength increments, 1 nm bandwidth and a response time of 0.5 sec. Each spectrum was an average of three measurements and was subtracted from buffer baseline. The data were converted to per residue molar ellipticity units [θ] (deg·cm2·dmol−1·residue−1) and smoothed using the Igor software. The percentage of helicity was calculated as it follows:
[formula] whereby CD222=molar ellipticity at 222 nm in [mdeg], N=number of amino acids in the peptide and C=peptide molar concentration [mol/l].

Numbered stars: 1 amine (or outer) side, 2 acyl side, 3 side chain; on linkers, the order of the positions; unused ones are H or OH. Bridge positions count the residues as written; N and C are the ends. Square brackets hold non-standard residues; d marks the D form. Peptide text beside a SMILES is read from it. Nle(6-ylidene) = O=C([C@H](CCCC=[*:3])N[*:1])[*:2]; Gly(cPent) = N[C@H](C(=O)O)C1CCCC1; tBuAla = CC(C)(C)C[C@H](N)C(=O)O; Cha = N[C@@H](CC1CCCCC1)C(=O)O; Chg = N[C@H](C(=O)O)C1CCCCC1; R5 = C=CCCC[C@@](C)(N)C(=O)O; S5 = C=CCCC[C@](C)(N)C(=O)O

`CC[C@H](C)[C@H](NC(=O)[C@H](Cc1ccccc1)NC(=O)[C@H](C)NC(=O)[C@H](CC(C)C)NC(=O)[C@H](CO)NC(=O)[C@H](CCC(N)=O)NC(=O)[C@H](CCC(=O)O)NC(C)=O)C(=O)N[C@@H](CCCNC(=N)N)C(=O)N[C@@H](CCCCN)C(=O)N[C@@H](CO)C(=O)N[C@@H](CC(=O)O)C(=O)N[C@@]1(C)CCCC=CCCC[C@@](C)(C(=O)N[C@H](C(N)=O)C(C)C)NC(=O)[C@H](Cc2c[nH]cn2)NC(=O)[C@H](CC(C)C)NC(=O)[C@H](CC(C)C)NC1=O` [Peptide 3c, reference compound] (Ac-EQSLAFIRKSD[S5]LLH[S5]V-NH2; staple 12-16): the “inhibitory activity in HEp-2 cells” value in data set [1] (RSV-mCherry) was “inactive”.

Regarding `CC[C@H](C)[C@@H]1NC(=O)[C@H](Cc2ccccc2)NC(=O)[C@@](C)(NC(=O)[C@H](CC(C)C)NC(=O)[C@H](CO)NC(=O)[C@]2(C)CCCC=CCCC[C@@](C)(NC(=O)[C@H](CCC(=O)O)NC(C)=O)C(=O)N[C@@H]([C@@H](C)CC)C(=O)N[C@@H](CC(N)=O)C(=O)N2)CCCC=CCCC[C@@](C)(C(=O)N[C@@H](CO)C(=O)N[C@@H](CC(=O)O)C(=O)N[C@@H](CCC(=O)O)C(=O)N[C@@H](CC(C)(C)C)C(=O)N[C@@H](CC(C)C)C(=O)N[C@@H](Cc2c[nH]cn2)C(=O)N[C@@H](CC(N)=O)C(=O)N[C@H](C(N)=O)C(C)C)NC(=O)[C@H](CCCNC(=N)N)NC1=O` [Peptide 4ca-var4, E Xaa2 IN Xaa5 SL Xaa8 FIR Xaa12 SDE Xaa16LHNV] (Ac-E[R5]IN[S5]SL[S5]FIR[S5]SDE[tBuAla]LHNV-NH2; staple 2-5, 8-12), the helicity in data set [2] stood at 98.4%. For the same compound, the “% helicity” value in data set [3] turned out to be 98.4%. In data set [1] (HEp-2 cells, 0.2 MOI RSV-mCherry, 48 h), this compound showed a half-maximal effective concentration (EC50) of 0.2 ± 0.05 µM.

With `CC[C@H](C)[C@@H]1NC(=O)[C@H](Cc2ccccc2)NC(=O)[C@@](C)(NC(=O)[C@H](CC(C)C)NC(=O)[C@H](CO)NC(=O)[C@]2(C)CCCC=CCCC[C@@](C)(NC(=O)[C@H](CCC(=O)O)NC(C)=O)C(=O)N[C@@H]([C@@H](C)CC)C(=O)N[C@@H](CC(N)=O)C(=O)N2)CCCC=CCCC[C@@](C)(C(=O)N[C@@H](CO)C(=O)N[C@@H](CC(=O)O)C(=O)N[C@@H](CCC(=O)O)C(=O)N[C@@H](CC2CCCCC2)C(=O)N[C@@H](CC(C)C)C(=O)N[C@@H](Cc2c[nH]cn2)C(=O)N[C@@H](CC(N)=O)C(=O)N[C@H](C(N)=O)C(C)C)NC(=O)[C@H](CCCNC(=N)N)NC1=O` [Peptide 4ca-var7, E Xaa2 IN Xaa5 SL Xaa8 FIR Xaa12 SDE Xaa16LHNV] (Ac-E[R5]IN[S5]SL[S5]FIR[S5]SDE[Cha]LHNV-NH2; staple 2-5, 8-12), the helicity in data set [2] is 91.4%. The “% helicity” value in data set [3] came to 91.4%.

Turning to `CC[C@H](C)[C@@H]1NC(=O)[C@H](Cc2ccccc2)NC(=O)[C@@](C)(NC(=O)[C@H](CC(C)C)NC(=O)[C@H](CO)NC(=O)[C@]2(C)CCCC=CCCC[C@@](C)(NC(=O)[C@H](CCC(=O)O)NC(C)=O)C(=O)N[C@@H]([C@@H](C)CC)C(=O)N[C@@H](CC(N)=O)C(=O)N2)CCCC=CCCC[C@@](C)(C(=O)N[C@@H](CO)C(=O)N[C@@H](CC(=O)O)C(=O)N[C@@H](CCC(=O)O)C(=O)N[C@@H](CC(C)C)C(=O)N[C@@H](CC(C)C)C(=O)N[C@@H](Cc2c[nH]cn2)C(N)=O)NC(=O)[C@H](CCCNC(=N)N)NC1=O` [Peptide 4ca18, E Xaa2 IN Xaa5 SL Xaa8 FIR Xaa12 SDELLH] (Ac-E[R5]IN[S5]SL[S5]FIR[S5]SDELLH-NH2; staple 2-5, 8-12), the helicity in data set [2] stood at 43%. In addition, in data set [3], the “% helicity” value came to 43%.

With `CC[C@H](C)[C@@H]1NC(=O)[C@H](Cc2ccccc2)NC(=O)[C@@H](NC(=O)[C@H](CC(C)C)NC(=O)[C@H](CO)NC(=O)[C@@H]2CCCC=CCCC[C@@](C)(NC(=O)[C@H](CCC(=O)O)NC(C)=O)C(=O)N[C@@H]([C@@H](C)CC)C(=O)N[C@@H](CC(N)=O)C(=O)N2)CCCC=CCCC[C@@H](C(=O)N[C@@H](CO)C(=O)N[C@@H](CC(=O)O)C(=O)N[C@@H](CCC(=O)O)C(=O)N[C@@H](CC(C)C)C(=O)N[C@@H](CC(C)C)C(=O)N[C@@H](Cc2c[nH]cn2)C(=O)N[C@@H](CC(N)=O)C(=O)N[C@H](C(N)=O)C(C)C)NC(=O)[C@H](CCCNC(=N)N)NC1=O` [Peptide 4ca2] (Ac-E[R5]IN[Nle(6-ylidene)]SL[Nle(6-ylidene)]FIR[Nle(6-ylidene)]SDELLHNV-NH2; staple 2-5, 8-12), the helicity in data set [2] is 58.1%. In data set [3], the “% helicity” value is recorded as 58.1%.

In data set [2], `CC[C@H](C)[C@@H]1NC(=O)[C@H](Cc2ccccc2)NC(=O)[C@@](C)(NC(=O)[C@H](CC(C)C)NC(=O)[C@H](CO)NC(=O)[C@]2(C)CCCC=CCCC[C@@](C)(NC(=O)[C@H](CCC(=O)O)NC(C)=O)C(=O)N[C@@H]([C@@H](C)CC)C(=O)N[C@@H](CCCNC(=N)N)C(=O)N2)CCCC=CCCC[C@@](C)(C(=O)N[C@@H](CO)C(=O)N[C@@H](CC(=O)O)C(=O)N[C@@H](CCC(=O)O)C(=O)N[C@@H](CC(C)(C)C)C(=O)N[C@@H](CC(C)C)C(=O)N[C@@H](Cc2c[nH]cn2)C(=O)N[C@@H](CC(N)=O)C(=O)N[C@H](C(N)=O)C(C)C)NC(=O)[C@H](CCCNC(=N)N)NC1=O` [Peptide 4ca-var6, E Xaa2 IR Xaa5 SL Xaa8 FIR Xaa12 SDE Xaa16LHNV] (Ac-E[R5]IR[S5]SL[S5]FIR[S5]SDE[tBuAla]LHNV-NH2; staple 2-5, 8-12) showed a helicity of 85.6%. Also, the “% helicity” value in data set [3] was determined as 85.6%.

Regarding `CC[C@H](C)[C@@H]1NC(=O)[C@H](Cc2ccccc2)NC(=O)[C@@](C)(NC(=O)[C@@H](NC(=O)[C@H](CO)NC(=O)[C@]2(C)CCCC=CCCC[C@@](C)(NC(=O)[C@H](CCC(=O)O)NC(C)=O)C(=O)N[C@@H]([C@@H](C)CC)C(=O)N[C@@H](CC(N)=O)C(=O)N2)C2CCCC2)CCCC=CCCC[C@@](C)(C(=O)N[C@@H](CO)C(=O)N[C@@H](CC(=O)O)C(=O)N[C@@H](CCC(=O)O)C(=O)N[C@@H](CC(C)C)C(=O)N[C@@H](CC(C)C)C(=O)N[C@@H](Cc2c[nH]cn2)C(=O)N[C@@H](CC(N)=O)C(=O)N[C@H](C(N)=O)C(C)C)NC(=O)[C@H](CCCNC(=N)N)NC1=O` [Peptide 4ca-var2] (Ac-E[R5]IN[S5]S[Gly(cPent)][S5]FIR[S5]SDELLHNV-NH2; staple 2-5, 8-12), in data set [2], the helicity came to 90.3%. Also, in data set [3], the “% helicity” value stood at 90.3%.

For the compound `CC[C@H](C)[C@@H]1NC(=O)[C@H](Cc2ccccc2)NC(=O)[C@@](C)(NC(=O)[C@@H](NC(=O)[C@H](CO)NC(=O)[C@]2(C)CCCC=CCCC[C@@](C)(NC(=O)[C@H](CCC(=O)O)NC(C)=O)C(=O)N[C@@H]([C@@H](C)CC)C(=O)N[C@@H](CC(N)=O)C(=O)N2)C2CCCCC2)CCCC=CCCC[C@@](C)(C(=O)N[C@@H](CO)C(=O)N[C@@H](CC(=O)O)C(=O)N[C@@H](CCC(=O)O)C(=O)N[C@@H](CC(C)C)C(=O)N[C@@H](CC(C)C)C(=O)N[C@@H](Cc2c[nH]cn2)C(=O)N[C@@H](CC(N)=O)C(=O)N[C@H](C(N)=O)C(C)C)NC(=O)[C@H](CCCNC(=N)N)NC1=O` [Peptide 4ca-var3] (Ac-E[R5]IN[S5]S[Chg][S5]FIR[S5]SDELLHNV-NH2; staple 2-5, 8-12), the helicity in data set [2] was determined as 91.4%. Moreover, in data set [3], the “% helicity” value is reported as 91.4%.

Usually EC50 stands for the concentration at which the effect is half-maximal. A lower EC50 goes with a more potent agent.

These data come from patent US11299518B2, “Fusion respiratory syncytial virus inhibitors and use thereof” (priority 2016, dated 2022).
